Source: publication PMC11247486, “Improving the In Vivo Stability of [^52Mn]Mn(II) Complexes with 18-Membered Macrocyclic Chelators for PET Imaging” (Journal of Medicinal Chemistry, 2024)

Experiments:
[1] = Dynamic PET/CT imaging, SUVmean analysis; format: in vivo; conditions: healthy mice, 1.5 h postinjection
Protocol: (§1) [^52Mn]Mn-CHXPYAN and [^52Mn]Mn-PYAN radiocomplexes were evaluated in vivo through 90 min dynamic PET/CT imaging of heathy mice followed by an ex vivo biodistribution analysis. Similarly, [^52Mn]MnCl2 was also studied as a control.
Regions of interest (ROIs) were manually drawn using CT images to determine the standard uptake value (SUVmean) using VivoQuant imaging software.
(§2) [^52Mn]Mn-CHXPYAN and [^52Mn]Mn-PYAN were synthesized with molar specific activities of 80 and 60 MBq/μmol, respectively. 1.04 ± 0.07 MBq (28 ± 2 μCi) of the radiocomplexes in 100 μL injection doses was prepared. The mice (n = 4 per group) were anesthetized with 2.5% isoflurane in oxygen and were injected via the retroorbital sinus. For comparison purposes, 1.04 ± 0.07 MBq (28 ± 2 μCi) of [^52Mn]MnCl2, pH 7 was also injected. After injection, mice were imaged on a Sofie GNEXT PET/CT scanner for a 90 min dynamic scan (9 frames of 10 min each) followed by a 3 min CT at 80 kVp for anatomical reference. PET images were reconstructed via 3D-OSEM (Ordered Subset Expectation Maximization) algorithm (24 subsets and 3 iterations), with random, attenuation, and decay correction, and CT was reconstructed with the modified Feldkamp algorithm and analyzed using VivoQuant 4.0 (Invicro Imaging Service and Software, Boston MA) software. After imaging, mice were euthanized, and organs were collected, weighed, and counted for associated radioactivity on an automated gamma counter. Radioactivity uptake was calculated as the percent injected dose per gram of tissue (% ID/g). Following the reconstruction of the images, ROIs (heart, liver, kidneys, muscle, and bone) were hand-drawn to determine the SUVs using the VivoQuant imaging software.

[2] = Serum stability of the 52Mn radiocomplexes, mouse serum; format: in vitro ADME; conditions: for intact complex / % activity of pellet / % activity of supernatant: 37 °C; for intact complex: 5 days
Protocol: (§3) The ^52Mn radiocomplexes were incubated with human or mouse serum at 37 °C. 50 μL of the radiocomplexes in PBS was combined with 500 μL of serum in triplicate and incubated at 37 °C for over 5 days. At indicated time points, 50 μL of the reaction mixture was removed and proteins were precipitated by addition of 50 μL of methanol. The precipitated proteins were centrifuged before iTLC measurements were performed over a period of 5 days on the supernatant. All the radio-TLC chromatograms for evaluation of stabilities are available in the Supporting Information section as Figures S9–S12.

[3] = Ex vivo biodistribution after PET/CT; format: in vivo, mice
Protocol: as §1, §2

[4] = DTPA challenge of the radiocomplexes; format: physicochemical; conditions: DTPA (5 equiv), 37 °C
Protocol: (§4) Assessment of the stability and kinetic inertness of the radiocomplexes before in vivo evaluation was conducted to assess the possibilities of transchelation. In vitro stability assays including incubating the radiocomplexes with an excess (100 μM) of biologically relevant metal ions (Mg^2+, Zn^2+, Fe^2+, and Cu^2+), DTPA, and mouse and human serum were conducted.
(§5) For metal challenge studies, a 10 molar excess of 100 μM of metal ions in chloride solutions including CuCl2, ZnCl2, FeCl2, and MgCl2 relative to ligand concentration was incubated with the radiocomplexes at 37 °C. A 5 molar excess of DTPA was also added to compete with ^52Mn in the radiocomplexes. Decomplexation was monitored by radio-iTLC over a period of 5 days.

[5] = Metal challenge of the radiocomplexes; format: physicochemical
Protocol: as §4, §5

[6] = Serum stability of the 52Mn radiocomplexes, human serum; format: in vitro ADME; conditions: for intact complex / % activity of pellet / % activity of supernatant: 37 °C; for intact complex: 5 days
Protocol: as §3

[7] = healthy mice, 1.5 h postinjection, mean ± SD, n = 4

[52Mn+2].c1cc2nc(c1)CNCCNCc1cccc(n1)CNCCNC2 [[^52Mn]Mn-PYAN]
SUVmean, kidneys [1]: 1.70 ± 0.26
SUVmean, liver [1]: 0.77 ± 0.14
intact complex [2]: 90.67 ± 1.12%
Biodistribution, Blood [3, 7]: 0.70 ± 0.20 % ID/g
Biodistribution, Brain [3, 7]: 0.45 ± 0.09 % ID/g
Biodistribution, Fat [3, 7]: 1.03 ± 0.50 % ID/g
Biodistribution, Femur [3, 7]: 0.80 ± 0.30 % ID/g
Biodistribution, Heart [3, 7]: 1.85 ± 0.71 % ID/g
Biodistribution, Kidney [3, 7]: 63.34 % ID/g
Biodistribution, Liver [3, 7]: 30.39 ± 11.46 % ID/g
Biodistribution, Lungs [3, 7]: 1.28 ± 0.51 % ID/g
Biodistribution, Muscle [3, 7]: 0.18 ± 0.05 % ID/g
Biodistribution, Pancreas [3, 7]: 2.41 ± 1.60 % ID/g
Biodistribution, Skin [3, 7]: 0.32 ± 0.18 % ID/g
Biodistribution, Spleen [3, 7]: 1.33 ± 0.93 % ID/g
Biodistribution, Stomach [3, 7]: 1.29 ± 0.53 % ID/g
Biodistribution, L. Intestine ([3]; mouse, in vivo, 1.5 h): 2.69 ± 0.82 % ID/g
Biodistribution, S. Intestine ([3]; mouse, in vivo, 1.5 h): 13.00 ± 2.35 % ID/g
intact complex ([4]; day 1): 2.32 ± 0.66%
intact complex ([5]; 10 molar excess of Cu^2+, day 1): < 4%
intact complex ([5]; 10 molar excess of Zn^2+, day 1): < 4%
intact complex [6]: 92.78 ± 1.22%

[52Mn+2].c1cc2nc(c1)CN[C@@H]1CCCC[C@H]1NCc1cccc(n1)CN[C@@H]1CCCC[C@H]1NC2 [[^52Mn]Mn-CHXPYAN]
SUVmean, kidneys [1]: 0.20 ± 0.03
SUVmean, liver [1]: 0.10 ± 0.02
intact complex [2]: 96.31 ± 1.34%
% activity of pellet ([2]; day 1, average): 10.33%
% activity of supernatant ([2]; day 1, average): 89.66%
% activity of pellet ([2]; day 2, average): 10.82%
% activity of supernatant ([2]; day 2, average): 89.18%
% activity of pellet ([2]; day 3, average): 12.07%
% activity of supernatant ([2]; day 3, average): 87.93%
% activity of pellet ([2]; day 4, average): 14.33%
% activity of supernatant ([2]; day 4, average): 85.66%
% activity of pellet ([2]; day 5, average): 12.14%
% activity of supernatant ([2]; day 5, average): 87.67%
radioactivity associated with the protein pellet ([2]; all time points): < 15%
Biodistribution, Blood [3, 7]: 0.14 ± 0.01 % ID/g
Biodistribution, Brain [3, 7]: 0.03 ± 0.01 % ID/g
Biodistribution, Fat [3, 7]: 0.11 ± 0.13 % ID/g
Biodistribution, Femur [3, 7]: 0.09 ± 0.04 % ID/g
Biodistribution, Heart [3, 7]: 0.21 ± 0.01 % ID/g
Biodistribution, Kidney [3, 7]: 11.27 ± 1.11 % ID/g
Biodistribution, L. Intestine [3, 7]: 3.45 ± 1.44 % ID/g
Biodistribution, Liver [3, 7]: 1.72 ± 0.93 % ID/g
Biodistribution, Lungs [3, 7]: 0.26 ± 0.12 % ID/g
Biodistribution, Muscle [3, 7]: 0.02 ± 0.01 % ID/g
Biodistribution, Pancreas [3, 7]: 0.20 ± 0.09 % ID/g
Biodistribution, S. Intestine [3, 7]: 2.32 ± 0.83 % ID/g
Biodistribution, Skin [3, 7]: 0.08 ± 0.04 % ID/g
Biodistribution, Spleen [3, 7]: 0.22 ± 0.18 % ID/g
Biodistribution, Stomach [3, 7]: 0.08 ± 0.04 % ID/g
intact complex ([4]; day 5): 5.73 ± 0.25%
intact complex ([5]; 10 molar excess of Cu^2+, day 5): 14.56 ± 1.09%
intact complex ([5]; 10 molar excess of Zn^2+, day 5): 8.14 ± 1.76%
intact complex [6]: 98.04 ± 0.18%
% activity of pellet ([6]; day 1, average): 13.09%
% activity of supernatant ([6]; day 1, average): 86.91%
% activity of pellet ([6]; day 2, average): 12.54%
% activity of supernatant ([6]; day 2, average): 87.45%
% activity of pellet ([6]; day 3, average): 14.46%
% activity of supernatant ([6]; day 3, average): 85.54%
% activity of pellet ([6]; day 4, average): 10.33%
% activity of supernatant ([6]; day 4, average): 89.66%
% activity of pellet ([6]; day 5, average): 9.31%
% activity of supernatant ([6]; day 5, average): 90.7%
radioactivity associated with the protein pellet ([6]; all time points): < 15%
